Test results taken from patent publication US6964983B2, “Compounds that modulate PPAR activity and methods for their preparation” (Warner-Lambert Company, LLC, priority 2002, dated 2005).

Assays:
[1] = target: T1, hPPARβ (Homo sapiens, UniProt Q03181); experiment: Transient transfection assay in HepG2 cells, Gal4-hPPARβ chimeric receptor, luciferase reporter; format: cell-based; conditions: Hep G2-hBeta EC50, 24 hours incubation; read-out: EC50β nM (Group)
T1 sequence (Q03181 171-441 limits assumed): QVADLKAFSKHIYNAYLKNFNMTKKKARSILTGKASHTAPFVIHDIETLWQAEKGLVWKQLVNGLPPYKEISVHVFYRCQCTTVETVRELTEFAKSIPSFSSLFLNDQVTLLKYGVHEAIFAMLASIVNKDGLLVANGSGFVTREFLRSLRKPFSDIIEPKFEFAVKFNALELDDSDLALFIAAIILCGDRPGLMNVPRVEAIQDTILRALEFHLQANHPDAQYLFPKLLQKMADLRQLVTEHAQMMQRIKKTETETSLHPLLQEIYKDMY
How it was run: (§1)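 HepG2 cells were transiently co-transfected with Gal4-hPPARα or Gal4-hPPARβ chimeras, a UAS-E1B luciferase reporter and a β-gal normalisation plasmid. After re-plating, cells were treated with compound at 50 pM–50 μM for 24 h at 37°C. EC50 values were derived from luciferase read-out normalised to β-gal.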

[2] = system: hApoA1 transgenic mouse; experiment: Lipid concentrations in the hApoA1 transgenic mouse; format: in vivo; conditions: 30 mg/kg/day, oral gavage
Description: B. Effect of PPAR Modulators on Lipid and Human Apoprotein A1 Concentrations in the hApoA1 Transgenic Mouse
Mice, transgenic for human apoA1, were purchased from Jackson laboratories. All animals were allowed normal chow (Ralston-Purina) and water ad libitum in temperature controlled rooms, under a 12-h light, 12-h dark cycle beginning with lights on at 6 AM. During the treatment phase of the study the mice were dosed daily between 6 and 9 AM by oral gavage using a suspension vehicle of 1.5% carboxymethylcellulose plus 0.2 percent Tween-20 (CMC/Tween) containing the specified compounds. Control animals received vehicle alone. Vehicle volume represented 0.25 percent of body weight. Under anesthesia, tail blood was obtained weekly in the morning at the indicated days of study. At termination, tissue samples (liver, intestine, fat, and muscle) were taken to study effects on genes effecting lipid metabolism. Each of the compounds of the present invention that were tested effected a significant increase in HDL over the values observed for the control animals. […] For instance, Example 4 raised HDL-c 97% and lowered triglycerides 65% relative to the control population, Example 6 raised HDL-c 24% and lowered triglycerides 59% relative to the control population, and Example 3 raised HDL-c 9% and lowered triglycerides 70% relative to the control population.

[3] = target: T2, hPPARα (Homo sapiens, UniProt Q07869); experiment: Transient transfection assay in HepG2 cells, Gal4-hPPARα chimeric receptor, luciferase reporter; format: cell-based; conditions: Hep G2-hAlpha EC50, 24 hours incubation; read-out: EC50α nM (Group)
T2 sequence (Q07869 200-468 limits assumed): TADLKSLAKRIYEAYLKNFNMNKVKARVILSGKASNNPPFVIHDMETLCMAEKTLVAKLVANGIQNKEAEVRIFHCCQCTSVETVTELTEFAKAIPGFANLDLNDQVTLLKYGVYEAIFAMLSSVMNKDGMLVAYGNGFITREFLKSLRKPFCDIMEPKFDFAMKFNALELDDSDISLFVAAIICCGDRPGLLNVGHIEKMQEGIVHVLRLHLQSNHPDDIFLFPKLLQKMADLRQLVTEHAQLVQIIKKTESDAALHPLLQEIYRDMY
How it was run: as §1

Structure (SMILES): COc1cc(OCC(=O)O)c(C)cc1SCc1ccc(-c2ccc(C(F)(F)F)cc2)cc1 [Example 4, [5-Methoxy-2-methyl-4-(4′-trifluoromethyl-biphenyl-4-ylmethylsulfanyl)-phenoxy]-acetic acid]
- EC50 [1]: < 300 nM
- lowered triglycerides relative to the control population [2]: 65%
- raised HDL-c relative to the control population [2]: 97%
- EC50 [3]: < 300 nM
- melting point: 170 to 171 °C
